Results reported in patent publication US5792622A, “Assay for chemicals” (priority 1995, dated 1998).
pIC50: −log10 of the molar value. Values after ≈ are worked out from the molar mass of the structure shown. Read-outs that look alike come from different tables or passages of the source.

Experiments:
[1] = system: R. meliloti; assay: microbe, parasite or virus in culture; type: cell-based
[2] = Procedure: Solid phenol was dissolved in water and added to the reaction tubes.
[3] = system: R. meliloti; conditions: cited from earlier work
[4] = system: R. meliloti NSI; assay: Inhibition of growth of R. meliloti NSI; type: cell-based; conditions: read-out: concentration inhibiting growth 50%
Procedure: Typically, R. meliloti is grown in medium with 10-20 uM calcium. Magnesium sulfate, at 59.9 ppm, is 0.2435 mM. The medium MDM contains 0.6 mm Magnesium chloride; this is a concentration found in most defined media. […] CDM, the medium used in the experiments with the assay of the invention, is 0.81 mM with respect to magnesium.

[5] = system: E. coli; assay: Inhibition of tetrazolium dye reduction by E. coli; type: cell-based
Procedure: The other strains of bacteria, mixed in a buffer with various toxic chemicals, which were tested with the tetrazolium dye, gave varying results. Some bacteria reduced the dye, but the reduction was not inhibited appreciably by toxic chemicals. The absorbance of tetrazolium by Rhodobacter sphaeroides was not inhibited by copper. E. coli reduced the dye, but reduction was not inhibited by xylene. […] FIG. 1 is a graph showing data comparing the absorbance of the bacteria R. meliloti and E. coli at A590 varying between 0.0 and 0.3 in reacting with different toxins.

[6] = Table 9; cited from earlier work

Question: What does the source list for `ClC(Cl)(Cl)Cl` [Carbon tetrachloride]?
Answer: IC50 ([1]; Sinorhizobium meliloti, Table 4, organic compounds, read-out: average (ppm), concentration giving 50% inhibition of dye reduction): 3530 µg/mL (≈ 22.9 mM); miscibility in water [2]: very immiscible in water

Question: What does the source list for `N#CC(C#N)=NNc1ccc(OC(F)(F)F)cc1` [FCCP, carbonyl-cyanide p(triflouromethoxy)phenylhydrozone]?
Answer: IC50 [1]: only a few μl; IC50 ([1]; Sinorhizobium meliloti, read-out: average (ppm), concentration giving 50% inhibition of dye reduction): 0.114 µg/mL (≈ 0.000449 mM); inhibition of tetrazolium reduction compared with DNP [3]: at a much lower concentration than does DNP

Question: With `[Cl-].[Cl-].[Mg+2]` [MgCl2, Magnesium chloride] as the compound, how does the pIC50 [4] read?
Answer: 1.57

Question: With Xylene as the compound, how does the “ppm (50% inhibition of reduction)” value ([1]; Table 5, 10,000 ppm stock method) read?
Answer: 151 ppm

Question: What about the “ppm (50% inhibition of reduction)” value ([1]; Table 5, QSAR method: aqueous phase assayed, hydrocarbon in water estimated by QSAR solubility model) of the same compound?
Answer: 30.3 ppm

Question: What about the “ppm (50% inhibition of reduction)” value ([1]; Table 5, direct method) of the same compound?
Answer: 476 ppm

Question: What about the Rhizobium/Tetrazolium ppm ([1]; Table 9) of the same compound?
Answer: 146-452 ppm

Question: And the “sensitivity of Rhizobium/Tetrazolium assay compared with Microtox assay” value ([1]; ratio of the inhibitory concentrations)?
Answer: at least an order of magnitude more sensitive than the Rhizobium/Tetrazolium assay

Question: What about the “inhibition of dye reduction” value [5] of the same compound?
Answer: not inhibited

Question: What about the Microtox ppm [6] of the same compound?
Answer: .70-9.25 ppm
